Measurements as given in ChEMBL document CHEMBL4813986, “Multicomponent synthesis and anti-proliferative screening of biaryl triazole-containing cyclophanes” (Bioorg Med Chem Lett, 2021).
In brackets after ≈: the same amount, converted by molar mass. Activity calls are given as the source filed them. The rule behind the calls is not given here.

What was measured:
[1] = tested on: PC-3; test: Antiproliferative activity against human PC-3 cells assessed as inhibition of cell growth; assay type: functional, cell-based
[2] = tested on: PC-3; test: Antiproliferative activity against human PC-3 cells assessed as inhibition of cell growth at 50 uM relative to control; assay type: functional
[3] = tested on: DU-145; test: Antiproliferative activity against human DU-145 cells assessed as inhibition of cell growth at 50 uM relative to control; assay type: functional
[4] = tested on: MCF7; test: Antiproliferative activity against human MCF7 cells assessed as inhibition of cell growth at 50 uM relative to control; assay type: functional
[5] = Cytotoxicity against African green monkey COS7 cells assessed as inhibition of cell growth at 50 uM relative to control; assay type: cell-based; settings: chlorocebus aethiops, COS-7 cells
[6] = Aqueous solubility of the compound; assay type: physicochemical; settings: buffer
[7] = tested on: Bel-7402; test: Cytotoxicity against human Bel-7402 cells assessed as reduction in cell viability measured after 5 days by MTT assay; assay type: functional, cell-based

CC(C)c1ccc(N2C(=O)Cc3ccc(cc3)OCCCn3cc(nn3)COc3cccc(c3)C2C(=O)NC2CCCCC2)cc1 (stereo not given)
IC50 [1]: 9.7 µM

CCCCCCCCCCCCNC(=O)C1c2cccc(c2)-c2ccc(cc2)OCc2cn(nn2)CCOc2ccc(cc2)CC(=O)N1c1ccc(C(C)C)cc1 (stereo not given)
inhibition at 50 µM [2]: 25.4% | inhibition at 50 µM [3]: 51% | inhibition at 50 µM [4]: 39.2% | inhibition at 50 µM [5]: 25.6% | solubility [6]: Insoluble

CC(C)c1ccc(N2C(=O)Cc3ccc(cc3)OCCn3cc(nn3)COc3ccc(cc3)-c3cccc(c3)C2C(=O)NC2CCCCC2)cc1 (stereo not given)
inhibition at 50 µM [2]: 90.2% | inhibition at 50 µM [3]: 93.8% | inhibition at 50 µM [4]: 81.8% | inhibition at 50 µM [5]: 37.5% | IC50 [1]: 4.6 µM

O=C(NC1CCCCC1)C1c2cccc(c2)-c2ccc(cc2)OCc2cn(nn2)CCOc2ccc(cc2)CC(=O)N1c1ccc(F)cc1 (stereo not given)
inhibition at 50 µM [2]: 50.3% | inhibition at 50 µM [3]: 28.4% | inhibition at 50 µM [4]: 43.2% | inhibition at 50 µM [5]: 43.2%

O=C(NC1CCCCC1)C1c2cccc(c2)-c2ccc(cc2)OCc2cn(nn2)CCOc2ccc(cc2)CC(=O)N1Cc1ccccc1 (stereo not given)
inhibition at 50 µM [2]: 11.6% | inhibition at 50 µM [3]: 11% | inhibition at 50 µM [4]: 15.2% | inhibition at 50 µM [5]: 9.9%

CCCCCCCCCCCCNC(=O)C1c2cccc(c2)-c2ccc(cc2)OCc2cn(nn2)CCCOc2ccc(cc2)CC(=O)N1c1ccc(C(C)C)cc1 (stereo not given)
inhibition at 50 µM [2]: 30.1% | inhibition at 50 µM [3]: 21.2% | inhibition at 50 µM [4]: 31.8% | inhibition at 50 µM [5]: 9.9% | solubility [6]: Insoluble

CCCCCCCCCCCCNC(=O)C1c2cccc(c2)-c2ccc(cc2)OCc2cn(nn2)CCOc2ccc(cc2)CC(=O)N1Cc1ccccc1 (stereo not given)
inhibition at 50 µM [2]: 25.8% | inhibition at 50 µM [3]: 10.4% | inhibition at 50 µM [4]: 26.4% | inhibition at 50 µM [5]: 28.2%

CCCCCCCCCCCCNC(=O)C1c2cccc(c2)-c2ccc(cc2)OCc2cn(nn2)CCCCOc2ccc(cc2)CC(=O)N1c1ccc(C(F)(F)F)cc1 (stereo not given)
inhibition at 50 µM [2]: 36.4% | inhibition at 50 µM [3]: 52.8% | inhibition at 50 µM [4]: 42.9% | inhibition at 50 µM [5]: 16.6%

CC1=C[C@H]2O[C@@H]3C[C@H]4OC(=O)/C=C\C=C\[C@@H]5O[C@@H](O[C@H]5C)[C@H](O)/C(C)=C/C(=O)OC[C@@]2(CC1)[C@]4(C)[C@]31CO1
IC50 [7]: 0.35 µg/mL (≈ 0.662 µM)

COc1cc([C@@H]2c3cc4c(cc3[C@@H](O[C@@H]3O[C@@H]5CO[C@@H](C)O[C@H]5[C@H](O)[C@H]3O)[C@H]3COC(=O)[C@H]23)OCO4)cc(OC)c1O [ETOPOSIDE]
IC50 [1]: 31.5 µM

O=C(NC1CCCCC1)C1c2cccc(c2)-c2ccc(cc2)OCc2cn(nn2)CCOc2ccc(cc2)CC(=O)N1c1ccc(C(F)(F)F)cc1 (stereo not given)
inhibition at 50 µM [2]: 46.9% | inhibition at 50 µM [3]: 37.1% | inhibition at 50 µM [4]: 45.8% | inhibition at 50 µM [5]: 37.7%

CCCCCCCCCCCCNC(=O)C1c2cccc(c2)-c2ccc(cc2)OCc2cn(nn2)CCOc2ccc(cc2)CC(=O)N1c1ccc(F)cc1 (stereo not given)
inhibition at 50 µM [2]: 68.3% | inhibition at 50 µM [3]: 93.1% | inhibition at 50 µM [4]: 82.4% | inhibition at 50 µM [5]: 35% | IC50 [1]: 13.9 µM

CCCCCCCCCCCCNC(=O)C1c2cccc(c2)-c2ccc(cc2)OCc2cn(nn2)CCCCCOc2ccc(cc2)CC(=O)N1c1ccc(C(F)(F)F)cc1 (stereo not given)
inhibition at 50 µM [2]: 22% | inhibition [3]: inactive | inhibition at 50 µM [4]: 24.9% | inhibition at 50 µM [5]: 10.2%

CC(C)(C)NC(=O)C1c2cccc(c2)-c2ccc(cc2)OCc2cn(nn2)CCOc2ccc(cc2)CC(=O)N1Cc1ccccc1 (stereo not given)
inhibition at 50 µM [2]: 48.3% | inhibition at 50 µM [3]: 25.5% | inhibition at 50 µM [4]: 44.6% | inhibition at 50 µM [5]: 37.8%

O=C(NC1CCCCC1)C1c2cccc(c2)-c2ccc(cc2)OCc2cn(nn2)CCCCCOc2ccc(cc2)CC(=O)N1c1ccc(C(F)(F)F)cc1 (stereo not given)
inhibition at 50 µM [2]: 46% | inhibition at 50 µM [3]: 48.8% | inhibition at 50 µM [4]: 53.3% | inhibition at 50 µM [5]: 45.4%

O=C(NC1CCCCC1)C1c2cccc(c2)-c2ccc(cc2)OCc2cn(nn2)CCCOc2ccc(cc2)CC(=O)N1c1ccc(C(F)(F)F)cc1 (stereo not given)
inhibition at 50 µM [2]: 35.5% | inhibition at 50 µM [3]: 20.1% | inhibition at 50 µM [4]: 60.9% | inhibition at 50 µM [5]: 30.9%

CCCCCCCCCCCCNC(=O)C1c2cccc(c2)-c2ccc(cc2)OCc2cn(nn2)CCOc2ccc(cc2)CC(=O)N1c1ccc(C(F)(F)F)cc1 (stereo not given)
inhibition at 50 µM [2]: 45.8% | inhibition at 50 µM [3]: 19.7% | inhibition at 50 µM [4]: 41.7% | inhibition at 50 µM [5]: 33.6%

CC(C)c1ccc(N2C(=O)Cc3ccc(cc3)OCCCn3cc(nn3)COc3ccc(cc3)-c3cccc(c3)C2C(=O)NC2CCCCC2)cc1 (stereo not given)
inhibition at 50 µM [2]: 60.8% | inhibition at 50 µM [3]: 41.9% | inhibition at 50 µM [4]: 58.2% | inhibition at 50 µM [5]: 48% | IC50 [1]: 13.8 µM

O=C(NC1CCCCC1)C1c2cccc(c2)-c2ccc(cc2)OCc2cn(nn2)CCCCOc2ccc(cc2)CC(=O)N1c1ccc(C(F)(F)F)cc1 (stereo not given)
inhibition at 50 µM [2]: 48.5% | inhibition at 50 µM [3]: 39% | inhibition at 50 µM [4]: 57.1% | inhibition at 50 µM [5]: 38.1%

CC(C)(C)NC(=O)C1c2cccc(c2)-c2ccc(cc2)OCc2cn(nn2)CCCOc2ccc(cc2)CC(=O)N1Cc1ccccc1 (stereo not given)
inhibition at 50 µM [2]: 5.5% | inhibition [3]: inactive | inhibition at 50 µM [4]: 67.9% | inhibition at 50 µM [5]: 33.1%

CCCCCCCCCCCCNC(=O)C1c2cccc(c2)-c2ccc(cc2)OCc2cn(nn2)CCCOc2ccc(cc2)CC(=O)N1c1ccc(C(F)(F)F)cc1 (stereo not given)
inhibition at 50 µM [2]: 15.3% | inhibition at 50 µM [3]: 9.8% | inhibition at 50 µM [4]: 45.6% | inhibition at 50 µM [5]: 20.4%
